# Reference: BindingDB's records for doi:10.1016/j.bmcl.2013.06.023 (Northwest Agriculture & Forestry University, 2013)
# Tests used:
# [1] = target: T1, G protein-activated inward rectifier potassium channel 1 (Homo sapiens, UniProt P48549); test: Inhibition of GIRK1/2 (unknown origin)
# T1 sequence (P48549 whole entry): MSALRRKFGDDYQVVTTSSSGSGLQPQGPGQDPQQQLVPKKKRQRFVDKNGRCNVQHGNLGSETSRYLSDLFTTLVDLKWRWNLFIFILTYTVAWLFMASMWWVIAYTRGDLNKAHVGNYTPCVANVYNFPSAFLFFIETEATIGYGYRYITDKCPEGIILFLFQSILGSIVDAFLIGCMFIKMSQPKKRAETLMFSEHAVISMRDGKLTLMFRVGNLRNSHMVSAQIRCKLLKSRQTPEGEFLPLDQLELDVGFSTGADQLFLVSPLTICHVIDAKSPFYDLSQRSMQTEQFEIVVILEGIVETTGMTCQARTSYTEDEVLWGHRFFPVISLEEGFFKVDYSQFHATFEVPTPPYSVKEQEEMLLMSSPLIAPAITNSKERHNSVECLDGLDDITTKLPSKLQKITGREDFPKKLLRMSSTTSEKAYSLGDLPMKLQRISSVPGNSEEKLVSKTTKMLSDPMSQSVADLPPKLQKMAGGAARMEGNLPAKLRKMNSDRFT
# [2] = target: T2, G protein-activated inward rectifier potassium channel 4 (Homo sapiens, UniProt P48544); test: Inhibition of GIRK1/4 (unknown origin)
# T2 sequence (P48544 whole entry): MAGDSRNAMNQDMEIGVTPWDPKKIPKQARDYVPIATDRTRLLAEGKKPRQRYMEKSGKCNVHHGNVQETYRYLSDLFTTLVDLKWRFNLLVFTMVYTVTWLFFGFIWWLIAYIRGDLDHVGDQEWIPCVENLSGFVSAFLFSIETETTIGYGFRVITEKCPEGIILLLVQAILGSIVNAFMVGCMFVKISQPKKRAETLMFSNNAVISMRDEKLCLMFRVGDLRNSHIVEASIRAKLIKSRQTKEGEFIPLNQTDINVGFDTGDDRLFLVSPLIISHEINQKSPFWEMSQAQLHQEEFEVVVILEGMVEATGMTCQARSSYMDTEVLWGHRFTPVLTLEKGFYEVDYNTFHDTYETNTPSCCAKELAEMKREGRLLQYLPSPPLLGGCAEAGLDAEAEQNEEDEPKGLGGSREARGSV
SMILES,IC50 [1] [µM],IC50 [2] [µM]
O=C(Nc1ccc(F)c(F)c1)Nc1cc(-c2ccccc2)nn1-c1ccccc1,30,30
O=C(Nc1ccc(F)c(F)c1)Nc1cc(C(F)(F)F)nn1-c1ccccc1,30,30
O=C(Nc1ccc(F)c(F)c1)Nc1cc(C2CCC2)nn1-c1ccccc1,30,30
